Laboratory results published in patent publication US11465983B2, “USP7 inhibitors for treating multiple myeloma” (Dana-Farber Cancer Institute, Inc., priority 2017, dated 2022).

Target: USP7 (Homo sapiens, UniProt Q93009)
Assay: Ub-AMC assay (USP7 assay)
Format: biochemical
Set-up: fused on or other part: His tag from pET28aLIC; removed by thrombin for the catalytic domain, no removal step given for the full length
Settings: USP7 assay
Experimental: USP7 and mutants were tested for their activity in Ubiquitin-AMC assay in presence or absence of inhibitors. […] For the same assay USP7 full length WT and Q351 mutant were used at 50 nM. […] The reaction was incubated 30 min at room temperature prior to the addition of 2 uM Ubiquitin-AMC (Boston Biochem) substrate. […] The calculated initial rate values were plotted against inhibitor concentrations to determine IC50s. All the experimental data were plotted using Prism GraphPad. FIG. 2A illustrates the structure guided optimization for the inhibition of USP7.
ND refers to not disclosed.

USP7, sequence (Q93009 208-560 limits assumed): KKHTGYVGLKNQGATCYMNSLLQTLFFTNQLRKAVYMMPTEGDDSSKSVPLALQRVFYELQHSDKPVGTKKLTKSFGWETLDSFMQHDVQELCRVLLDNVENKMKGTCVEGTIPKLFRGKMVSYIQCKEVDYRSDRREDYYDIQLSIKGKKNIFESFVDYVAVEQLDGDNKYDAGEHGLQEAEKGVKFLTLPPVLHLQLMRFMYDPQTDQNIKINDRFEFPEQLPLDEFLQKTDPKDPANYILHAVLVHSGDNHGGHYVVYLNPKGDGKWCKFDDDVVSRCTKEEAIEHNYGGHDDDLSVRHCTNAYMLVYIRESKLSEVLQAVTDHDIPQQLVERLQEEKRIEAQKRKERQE

IC50	Compound
> 10 µM	O=C(c1ccc2c(Cl)c3c(nc2c1)CCCC3)N1CCC(O)(Cn2cnc3cc(Cl)ccc3c2=O)CC1 [Compound 71]
> 10 µM	CC(C)(CC(=O)N1CCC(O)(Cn2cnc3cc(Cl)ccc3c2=O)CC1)c1ccccc1 [Compound 28]
0.2 to 1 µM	CCN(Cc1ccccc1)C(=O)N1CCC(O)(Cn2cnc3cc(Cl)ccc3c2=O)CC1 [Compound 39]
< 0.2 µM	C[C@H](CC(=O)N1CCC(O)(Cn2cnc3cc(Cl)ccc3c2=O)CC1)c1ccccc1 [Compound 1, (R)-7-Chloro-3-((4-hydroxy-1-(3-phenylbutanoyl)piperidin-4-yl)methyl)quinazolin-4(3H)-one]
> 10 µM	O=C(C1Cc2ccccc2C1)N1CCC(O)(Cn2cnc3cc(Cl)ccc3c2=O)CC1 [Compound 81]
> 10 µM	O=C(NCCCC(=O)N1CCC(Cn2cnc3cc(Cl)ccc3c2=O)CC1)c1ccc2c(Cl)c3c(nc2c1)CCCC3 [Compound 100]
0.2 to 1 µM	O=C(CCc1ccc(F)cc1)N1CCC(O)(Cn2cnc3cc(Cl)ccc3c2=O)CC1 [Compound 54]
> 10 µM	[N-]=[N+]=NCCOCCOCC(=O)Nc1ccc2c(=O)n(CC3(O)CCN(C(=O)CCc4ccccc4)CC3)cnc2c1 [Compound 63]
1 to 10 µM	O=C(C1CC1c1ccccc1)N1CCC(O)(Cn2cnc3cc(Cl)ccc3c2=O)CC1 (stereo not shown) [Compound 30]
< 0.2 µM	O=C(CCc1ccccc1)N1CCC(Cn2cnc3cc(Cl)ccc3c2=O)CC1 [Compound 2, 7-Chloro-3-((1-(3-phenylpropanoyl)piperidin-4-yl)methyl)quinazolin-4(3H)-one]
> 10 µM	Cc1cccc(CCC(=O)N2CCC(O)(Cn3cnc4cc(Cl)ccc4c3=O)CC2)c1 [Compound 89]
> 10 µM	O=C(NCCCn1cnc2cc(Cl)ccc2c1=O)c1ccc2c(Cl)c3c(nc2c1)CCCC3 [Compound 85]
1 to 10 µM	Cn1cc(C(=O)CCl)cc1C(=O)NCCCCC(=O)N1CCC(O)(Cn2cnc3cc(Cl)ccc3c2=O)CC1 [Compound 18]
> 10 µM	O=C(CCc1ccc2c(Cl)c3c(nc2c1)CCCC3)NCCC(=O)N1CCC(O)(Cn2cnc3cc(Cl)ccc3c2=O)CC1 [Compound 97]
0.2 to 1 µM	CC(=O)Nc1ccc2c(=O)n(CC3(O)CCN(C(=O)C[C@@H](C)c4ccccc4)CC3)cnc2c1 [Compound 102]
> 10 µM	O=C(CCc1ccc(Br)cc1)N1CCC(O)(Cn2cnc3cc(Cl)ccc3c2=O)CC1 [Compound 23]
> 10 µM	COc1ccccc1CCC(=O)N1CCC(O)(Cn2cnc3cc(Cl)ccc3c2=O)CC1 [Compound 87]
> 10 µM	CN(CC(=O)N1CCC(O)(Cn2cnc3cc(Cl)ccc3c2=O)CC1)c1ccccc1 [Compound 79]
> 10 µM	COc1ccc(CCC(=O)N2CCC(O)(Cn3cnc4cc(Cl)ccc4c3=O)CC2)cc1 [Compound 53]
1 to 10 µM	CC(C(=O)N1CCC(O)(Cn2cnc3cc(Cl)ccc3c2=O)CC1)C(C)c1ccccc1 (stereo not shown) [Compound 93]
> 10 µM	Nc1ccc2ncn(CC3(O)CCN(C(=O)CCc4ccccc4)CC3)c(=O)c2c1 [Compound 69]
> 10 µM	O=C(NCC(=O)N1CCC(O)(Cn2cnc3cc(Cl)ccc3c2=O)CC1)c1ccc2c(Cl)c3c(nc2c1)CCCC3 [Compound 96]
> 10 µM	7-Chloro-3-((4-hydroxy-1-(3-phenylpropyl)piperidin-4-yl)methyl)quinazolin-4(3H)-one [Compound 4]
0.2 to 1 µM	CC(Cc1ccccc1)C(=O)N1CCC(O)(Cn2cnc3cc(Cl)ccc3c2=O)CC1 (stereo not shown) [Compound 29]
0.2 to 1 µM	C[C@H](Cc1ccccc1)C(=O)N1CCC(O)(Cn2cnc3cc(Cl)ccc3c2=O)CC1 [Compound 72]
> 10 µM	O=C(CCc1cccnc1)N1CCC(O)(Cn2cnc3cc(Cl)ccc3c2=O)CC1 [Compound 35]
> 10 µM	C[C@@H](Cc1ccccc1)C(=O)N1CCC(O)(Cn2cnc3cc(Cl)ccc3c2=O)CC1 [Compound 73]
> 10 µM	O=C([C@@H](O)Cc1ccccc1)N1CCC(O)(Cn2cnc3cc(Cl)ccc3c2=O)CC1 [Compound 32]
